Experimental data published in publication PMC3153577 (Biochemistry, 2011).
Like-named read-outs stand apart in the source and are kept apart here.

What was measured:
MtDHFR = target: T1, MtDHFR (Mycobacterium tuberculosis, UniProt P9WNX1)
T1 sequence (P9WNX1 1-161): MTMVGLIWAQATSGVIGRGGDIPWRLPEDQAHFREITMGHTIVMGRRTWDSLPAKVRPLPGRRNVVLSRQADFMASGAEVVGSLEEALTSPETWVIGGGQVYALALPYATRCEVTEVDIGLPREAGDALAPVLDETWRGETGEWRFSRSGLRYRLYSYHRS

MtDHFR-NADPH = target: T2, MtDHFR-NADPH (Mycobacterium tuberculosis, UniProt P9WNX1); conditions: NADP^+ competition
T2 sequence (P9WNX1 1-161): T1 sequence (P9WNX1 1-161)

MtDHFR-NADP^+ = target: T3, MtDHFR-NADP^+ (Mycobacterium tuberculosis, UniProt P9WNX1); type: binding; conditions: for koff: competitor NADPH
T3 sequence (P9WNX1 1-161): T1 sequence (P9WNX1 1-161)

[1] = NADPH dissociation from MtDHFR-NADPH
[2] = NADPH dissociation from MtDHFR-NADPH-THF

Compound | k4, best-fit value – global fitting (MtDHFR; NADPH association to MtDHFR-THF, not determined experimentally) | k−10, best-fit value – global fitting (MtDHFR; [1]) | k−4, best-fit value – global fitting (MtDHFR; [2]) | k−4, value obtained by analytical fitting (MtDHFR-NADPH; [2]) | k−10, value obtained by analytical fitting (MtDHFR-NADPH; [1]) | k12, value obtained by analytical fitting (MtDHFR-NADP^+; NADP^+ dissociation from MtDHFR-NADP^+-DHF, NADPH competition) | k3, value obtained by analytical fitting (MtDHFR-NADP^+; NADP^+ dissociation from MtDHFR-NADP^+-THF, NADPH competition) | k9, value obtained by analytical fitting (MtDHFR-NADP^+; NADP^+ dissociation from MtDHFR-NADP^+, NADPH competition) | koff (MtDHFR-NADP^+; NADP^+ from MtDHFR-NADP^+-DHF) | koff (MtDHFR-NADP^+; NADP^+ from MtDHFR-NADP^+-THF) | koff (MtDHFR-NADP^+; NADP^+ from MtDHFR-NADP^+) | k−3, best-fit value – global fitting (MtDHFR; NADP^+ association to MtDHFR-THF, not determined experimentally) | k−9, best-fit value – global fitting (MtDHFR; NADP^+ association to free enzyme, linked to k9 based on KNADP = 0.33 μM) | k9, best-fit value – global fitting (MtDHFR; NADP^+ dissociation from MtDHFR-NADP^+) | k12, best-fit value – global fitting (MtDHFR; NADP^+ dissociation from MtDHFR-NADP^+-DHF) | k3, best-fit value – global fitting (MtDHFR; NADP^+ dissociation from MtDHFR-NADP^+-THF)
NC(=O)C1=CN([C@@H]2O[C@H](COP(=O)(O)OP(=O)(O)OC[C@H]3O[C@@H](n4cnc5c(N)ncnc54)[C@H](OP(=O)(O)O)[C@@H]3O)[C@@H](O)[C@H]2O)C=CC1 [NADPH, nicotinamide adenine dinucleotide phosphate (reduced form)] | 1.01e+08 M⁻¹ s⁻¹ | 0.08 ± 0.01 s⁻¹ | 1.1 ± 0.1 s⁻¹ | 1.7 ± 0.6 s⁻¹ | 0.13 ± 0.01 s⁻¹ |  |  |  |  |  |  |  |  |  |  | 
NC(=O)c1ccc[n+]([C@H]2O[C@@H](COP(=O)([O-])OP(=O)(O)OC[C@H]3O[C@@H](n4cnc5c(N)ncnc54)[C@H](OP(=O)(O)O)[C@@H]3O)[C@H](O)[C@@H]2O)c1 [NADP^+, nicotinamide adenine dinucleotide phosphate (oxidized form)] |  |  |  |  |  | 7.8 ± 0.1 s⁻¹ | 8.02 ± 0.02 s⁻¹ | 98 ± 4 s⁻¹ | 7.8 ± 0.1 s⁻¹ | 8.0 ± 0.1 s⁻¹ | 97.6 ± 4.1 s⁻¹ | 1.09e+08 ± 6e+06 M⁻¹ s⁻¹ | 2.68e+08 ± 7e+06 M⁻¹ s⁻¹ | 81 ± 2 s⁻¹ | 2.1 ± 0.2 s⁻¹ | 7.3 ± 0.1 s⁻¹
